From PMC9525708, “Mechanistic insight into the role of mevalonate kinase by a natural fatty acid-mediated killing of Leishmania donovani” (Scientific Reports, 2022) come the findings set out here.

For test [1], the target named is T1, mevalonate kinase (MevK, LD-MevK) (Leishmania donovani, UniProt A0A3S7X459).
T1 construct: gene LdCL_310011300; recombinant LD-MevK (pET28a, Ni-NTA purified, ~37 kDa)
T1 sequence (A0A3S7X459 1-329): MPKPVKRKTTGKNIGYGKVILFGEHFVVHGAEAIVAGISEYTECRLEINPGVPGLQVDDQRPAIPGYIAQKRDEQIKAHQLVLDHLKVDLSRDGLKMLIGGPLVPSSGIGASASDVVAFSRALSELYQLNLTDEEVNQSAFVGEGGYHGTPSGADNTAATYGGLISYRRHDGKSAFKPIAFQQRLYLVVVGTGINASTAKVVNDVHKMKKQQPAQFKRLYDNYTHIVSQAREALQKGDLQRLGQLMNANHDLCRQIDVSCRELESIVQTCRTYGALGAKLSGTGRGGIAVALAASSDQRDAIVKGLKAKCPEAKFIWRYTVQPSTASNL
Put plainly: pyruvate kinase-lactate dehydrogenase coupled assay, purified enzyme, […] compound. Format: biochemical.

The target in test [2] is T1, mevalonate kinase (MevK, LD-MevK). Put plainly: ITC (exothermic binding constant); also CD, and coupled PK-LDH assay with purified enzyme ([…] inhibition at […], competitive). As to conditions: read-out: ITC (exothermic binding constant); also CD, and coupled PK-LDH assay with purifi.
Test [3] shares this target. Put plainly: ITC (endothermic binding constant); also CD and enzyme kinetics (Km […]).

In test [1], `CCCCCCCC(=O)OC` [1m-CAE, methyl octanoate] had an inhibition at 100 µM of roughly 65%. As for `CCCCC(C)CCC(=O)O` (stereo not shown) [4m-CA, 4-methyl octanoic acid], in test [1], the inhibition at 100 µM is roughly 65%. Turning to `CCCCCCCC(=O)O` [CA, Caprylic acid], the Kd in test [2] is 101 µM. With `C[C@@](O)(CCO)CC(=O)O` [MEV, 3,5-Dihydroxy-3-methylpentanoic acid], the Kd in test [3] was 62.9 µM.

The inhibition is the change of the read-out against control, counted positive when it falls. Low readings indicate a weak effect, high ones a strong effect.
